For orientation: IC50 means the point on the concentration scale where inhibition reaches its midpoint. A higher IC50 goes with lower potency.

Holding throughout (experiment): Kinase inhibition assay
What all share (assay type): biochemical
Conditions in all cases: 10 μM ATP; 5-dose IC50 mode

In one test the target is T1, AKT1 (Homo sapiens, UniProt P31749).
T1 construct: purchased Reaction Biology Corporation
The procedure: (§1) Kinase assays were performed at Reaction Biology Corporation. To a freshly prepared buffer solution was added the target kinase at a concentration of […]. The contents were mixed gently, and then compound 8h dissolved in DMSO was added to the reaction mixture in the appropriate concentration. The mixture was incubated at room temperature for 30 min. prior to addition of ATP to initiate the reaction. Compound 8h was tested in a 5-dose IC50 mode with 10-fold serial dilutions starting at 10 μM. For each of the kinases, a control compound in a 10-dose IC50 mode with 3-fold serial dilutions starting at 20 μM. The control compounds were GW5074 (3-(3,5-dibromo-4-hydroxy-benzylidene)-5-iodo-1,3-dihydro-indol-2-one) for BRAF, CK2a and RAF1, D4476 (4-[4-(2,3-dihydro-1,4-benzodioxin-6-yl)-5-(2-pyridinyl)-1H-imidazol-2-yl]benzamide) for CK1d; Wee1 inhibitor (4-(2-chlorophenyl)-9-hydroxypyrrolo[3,4-c]carbazole-1,3-(2H,6H)-dione) for WEE1 and saturosporine for other kinases. Reaction was carried out at 10 μM ATP concentration.

A further test has as its target T2, ALK (Homo sapiens, UniProt Q9UM73).
T2 construct: purchased Reaction Biology Corporation
The procedure:
as §1

The next test addresses T3, ARK5/NUAK1 (Homo sapiens, UniProt O60285).
T3 construct: purchased Reaction Biology Corporation
The procedure: as §1

In the next test the target is T4, Aurora B (Homo sapiens, UniProt Q96GD4).
T4 construct: purchased Reaction Biology Corporation
The procedure:
as §1

In the next test the target is T5, Aurora C (Homo sapiens, UniProt Q9UQB9).
T5 construct: purchased Reaction Biology Corporation
The procedure: as §1

A further test deals with T6, CDK2/cyclin A (Homo sapiens, UniProt P24941).
T6 construct: purchased Reaction Biology Corporation
The procedure:
as §1

The next test has as its target T7, CDK4/cyclin D1 (Homo sapiens, UniProt P11802).
T7 construct: purchased Reaction Biology Corporation
The procedure: as §1

The target of another test is T8, CDK5/p25 (Homo sapiens, UniProt Q00535).
T8 construct: purchased Reaction Biology Corporation
As for the experimental part:
as §1

The target in the next test is T9, CHK2 (Homo sapiens, UniProt O96017).
T9 construct: purchased Reaction Biology Corporation
The procedure:
as §1

The target in another test is T10, EGFR (Homo sapiens, UniProt P00533).
T10 construct: purchased Reaction Biology Corporation
The procedure:
as §1

The next test addresses T11, JAK1 (Homo sapiens, UniProt P23458).
T11 construct: purchased Reaction Biology Corporation
The procedure:
as §1

The next test addresses T12, JAK2 (Homo sapiens, UniProt O60674).
T12 construct: purchased Reaction Biology Corporation
As for the experimental part: as §1

In another test the target is T13, MEK1 (Homo sapiens, UniProt Q02750).
T13 construct: purchased Reaction Biology Corporation
As for the experimental part:
as §1

Another test addresses T14, MEK2 (Homo sapiens, UniProt P36507).
T14 construct: purchased Reaction Biology Corporation
The procedure: as §1

The target in a further test is T15, PDGFRb (Homo sapiens, UniProt P09619).
T15 construct: purchased Reaction Biology Corporation
As for the experimental part:
as §1

The next test concerns the target T16, PIM3 (Homo sapiens, UniProt Q86V86).
T16 construct: purchased Reaction Biology Corporation
As for the experimental part:
as §1

The next test concerns the target T17, PLK1 (Homo sapiens, UniProt P53350).
T17 construct: purchased Reaction Biology Corporation
The procedure: as §1

Another test concerns the target T18, RET (Homo sapiens, UniProt P07949).
T18 construct: purchased Reaction Biology Corporation
As for the experimental part: as §1

The next test concerns the target T19, c-Kit (Homo sapiens, UniProt P10721).
T19 construct: purchased Reaction Biology Corporation
As for the experimental part: as §1

A value given as a limit tells only on which side of the number the result lay.

T7 sequence (P11802 whole entry): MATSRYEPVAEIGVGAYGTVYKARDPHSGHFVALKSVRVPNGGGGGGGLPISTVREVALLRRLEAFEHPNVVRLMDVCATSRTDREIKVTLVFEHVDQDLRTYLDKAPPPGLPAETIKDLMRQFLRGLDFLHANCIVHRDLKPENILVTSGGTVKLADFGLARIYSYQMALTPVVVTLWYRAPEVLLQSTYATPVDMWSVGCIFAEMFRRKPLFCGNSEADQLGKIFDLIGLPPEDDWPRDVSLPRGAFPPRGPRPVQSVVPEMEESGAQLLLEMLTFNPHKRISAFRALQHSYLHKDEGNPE
T7 sequence (P24385 whole entry partner): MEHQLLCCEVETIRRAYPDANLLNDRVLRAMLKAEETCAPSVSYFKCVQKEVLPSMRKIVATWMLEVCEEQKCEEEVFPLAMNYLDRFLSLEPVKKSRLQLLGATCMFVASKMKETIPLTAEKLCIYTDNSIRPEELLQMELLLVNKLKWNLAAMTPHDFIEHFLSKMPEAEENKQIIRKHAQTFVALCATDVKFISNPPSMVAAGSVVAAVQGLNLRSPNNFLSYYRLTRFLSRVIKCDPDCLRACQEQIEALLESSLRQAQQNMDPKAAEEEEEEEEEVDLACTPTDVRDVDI
T19 sequence (P10721 26-976): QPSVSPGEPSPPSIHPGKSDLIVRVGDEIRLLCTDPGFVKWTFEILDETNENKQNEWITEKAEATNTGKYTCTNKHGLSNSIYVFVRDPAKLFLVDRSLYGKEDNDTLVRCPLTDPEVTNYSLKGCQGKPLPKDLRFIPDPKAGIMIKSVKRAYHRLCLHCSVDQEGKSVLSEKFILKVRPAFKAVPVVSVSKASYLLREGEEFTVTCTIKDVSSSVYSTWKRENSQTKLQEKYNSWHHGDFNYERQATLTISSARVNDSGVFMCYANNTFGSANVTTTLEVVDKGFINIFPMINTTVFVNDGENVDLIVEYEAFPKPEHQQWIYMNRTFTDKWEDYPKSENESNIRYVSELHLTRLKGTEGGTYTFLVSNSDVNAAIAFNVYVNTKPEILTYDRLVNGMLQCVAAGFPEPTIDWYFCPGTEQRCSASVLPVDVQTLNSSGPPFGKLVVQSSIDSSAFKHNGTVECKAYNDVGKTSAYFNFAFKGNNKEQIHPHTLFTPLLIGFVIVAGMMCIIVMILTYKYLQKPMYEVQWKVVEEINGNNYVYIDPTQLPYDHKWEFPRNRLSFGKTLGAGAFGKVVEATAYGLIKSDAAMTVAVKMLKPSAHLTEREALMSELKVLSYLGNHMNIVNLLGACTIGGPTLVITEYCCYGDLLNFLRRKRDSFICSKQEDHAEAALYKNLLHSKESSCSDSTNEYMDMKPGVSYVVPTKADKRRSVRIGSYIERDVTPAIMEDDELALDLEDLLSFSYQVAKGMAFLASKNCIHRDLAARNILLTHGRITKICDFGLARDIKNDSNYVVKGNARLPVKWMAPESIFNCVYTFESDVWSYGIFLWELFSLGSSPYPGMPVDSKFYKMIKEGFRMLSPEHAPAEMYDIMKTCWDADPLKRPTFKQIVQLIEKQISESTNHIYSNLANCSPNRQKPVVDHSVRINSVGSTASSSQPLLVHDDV
T17 sequence (P53350 whole entry): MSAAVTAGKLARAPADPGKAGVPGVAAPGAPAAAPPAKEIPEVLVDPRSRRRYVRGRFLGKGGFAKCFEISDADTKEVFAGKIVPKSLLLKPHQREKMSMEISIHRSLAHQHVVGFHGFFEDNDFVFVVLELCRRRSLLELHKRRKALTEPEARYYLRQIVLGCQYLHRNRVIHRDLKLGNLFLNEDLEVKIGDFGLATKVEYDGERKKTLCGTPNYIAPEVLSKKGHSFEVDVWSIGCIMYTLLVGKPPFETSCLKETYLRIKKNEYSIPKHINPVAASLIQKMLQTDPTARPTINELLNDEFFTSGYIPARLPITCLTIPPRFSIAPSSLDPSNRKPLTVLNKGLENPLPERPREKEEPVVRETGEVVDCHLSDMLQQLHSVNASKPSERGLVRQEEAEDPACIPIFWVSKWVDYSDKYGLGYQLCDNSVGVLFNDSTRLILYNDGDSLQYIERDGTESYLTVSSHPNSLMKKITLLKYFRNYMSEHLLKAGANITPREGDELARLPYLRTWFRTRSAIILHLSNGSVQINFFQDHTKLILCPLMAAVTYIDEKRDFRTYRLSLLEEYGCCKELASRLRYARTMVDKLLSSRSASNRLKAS
T14 sequence (P36507 whole entry): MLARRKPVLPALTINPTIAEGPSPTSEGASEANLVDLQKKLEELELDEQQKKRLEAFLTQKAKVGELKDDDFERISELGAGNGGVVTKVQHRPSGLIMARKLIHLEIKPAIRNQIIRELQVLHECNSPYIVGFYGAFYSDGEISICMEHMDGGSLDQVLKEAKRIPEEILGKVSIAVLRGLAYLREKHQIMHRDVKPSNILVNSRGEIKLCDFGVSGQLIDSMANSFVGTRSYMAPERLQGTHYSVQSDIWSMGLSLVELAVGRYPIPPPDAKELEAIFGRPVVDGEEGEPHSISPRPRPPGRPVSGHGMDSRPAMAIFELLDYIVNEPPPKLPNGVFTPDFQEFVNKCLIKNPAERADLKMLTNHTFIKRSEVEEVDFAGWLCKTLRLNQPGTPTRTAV
T13 sequence (Q02750 whole entry): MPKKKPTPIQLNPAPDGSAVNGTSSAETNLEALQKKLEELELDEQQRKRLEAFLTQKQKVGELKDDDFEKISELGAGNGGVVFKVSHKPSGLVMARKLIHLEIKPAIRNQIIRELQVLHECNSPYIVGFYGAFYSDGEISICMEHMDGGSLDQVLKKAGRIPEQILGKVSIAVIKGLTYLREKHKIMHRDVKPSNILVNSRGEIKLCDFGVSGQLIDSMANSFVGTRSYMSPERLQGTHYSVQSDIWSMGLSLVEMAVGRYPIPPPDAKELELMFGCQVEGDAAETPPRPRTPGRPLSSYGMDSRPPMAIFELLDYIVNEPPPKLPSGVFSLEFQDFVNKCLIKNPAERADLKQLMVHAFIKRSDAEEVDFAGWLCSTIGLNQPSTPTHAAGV
T8 sequence (Q00535 whole entry): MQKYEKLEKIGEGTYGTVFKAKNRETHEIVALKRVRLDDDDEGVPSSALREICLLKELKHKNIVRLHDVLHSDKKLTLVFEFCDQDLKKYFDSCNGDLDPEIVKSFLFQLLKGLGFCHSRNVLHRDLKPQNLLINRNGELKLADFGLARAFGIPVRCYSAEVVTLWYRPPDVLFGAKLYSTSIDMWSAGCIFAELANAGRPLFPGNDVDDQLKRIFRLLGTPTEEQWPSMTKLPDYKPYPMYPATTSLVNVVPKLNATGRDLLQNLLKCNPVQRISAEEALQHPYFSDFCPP
T8 sequence (Q15078 99-307 partner limits assumed): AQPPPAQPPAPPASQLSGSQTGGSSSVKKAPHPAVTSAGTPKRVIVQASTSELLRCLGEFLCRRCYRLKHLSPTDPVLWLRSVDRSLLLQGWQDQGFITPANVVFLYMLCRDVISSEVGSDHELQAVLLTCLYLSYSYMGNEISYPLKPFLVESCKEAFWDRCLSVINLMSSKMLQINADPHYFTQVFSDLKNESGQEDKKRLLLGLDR
T10 sequence (P00533 25-1210): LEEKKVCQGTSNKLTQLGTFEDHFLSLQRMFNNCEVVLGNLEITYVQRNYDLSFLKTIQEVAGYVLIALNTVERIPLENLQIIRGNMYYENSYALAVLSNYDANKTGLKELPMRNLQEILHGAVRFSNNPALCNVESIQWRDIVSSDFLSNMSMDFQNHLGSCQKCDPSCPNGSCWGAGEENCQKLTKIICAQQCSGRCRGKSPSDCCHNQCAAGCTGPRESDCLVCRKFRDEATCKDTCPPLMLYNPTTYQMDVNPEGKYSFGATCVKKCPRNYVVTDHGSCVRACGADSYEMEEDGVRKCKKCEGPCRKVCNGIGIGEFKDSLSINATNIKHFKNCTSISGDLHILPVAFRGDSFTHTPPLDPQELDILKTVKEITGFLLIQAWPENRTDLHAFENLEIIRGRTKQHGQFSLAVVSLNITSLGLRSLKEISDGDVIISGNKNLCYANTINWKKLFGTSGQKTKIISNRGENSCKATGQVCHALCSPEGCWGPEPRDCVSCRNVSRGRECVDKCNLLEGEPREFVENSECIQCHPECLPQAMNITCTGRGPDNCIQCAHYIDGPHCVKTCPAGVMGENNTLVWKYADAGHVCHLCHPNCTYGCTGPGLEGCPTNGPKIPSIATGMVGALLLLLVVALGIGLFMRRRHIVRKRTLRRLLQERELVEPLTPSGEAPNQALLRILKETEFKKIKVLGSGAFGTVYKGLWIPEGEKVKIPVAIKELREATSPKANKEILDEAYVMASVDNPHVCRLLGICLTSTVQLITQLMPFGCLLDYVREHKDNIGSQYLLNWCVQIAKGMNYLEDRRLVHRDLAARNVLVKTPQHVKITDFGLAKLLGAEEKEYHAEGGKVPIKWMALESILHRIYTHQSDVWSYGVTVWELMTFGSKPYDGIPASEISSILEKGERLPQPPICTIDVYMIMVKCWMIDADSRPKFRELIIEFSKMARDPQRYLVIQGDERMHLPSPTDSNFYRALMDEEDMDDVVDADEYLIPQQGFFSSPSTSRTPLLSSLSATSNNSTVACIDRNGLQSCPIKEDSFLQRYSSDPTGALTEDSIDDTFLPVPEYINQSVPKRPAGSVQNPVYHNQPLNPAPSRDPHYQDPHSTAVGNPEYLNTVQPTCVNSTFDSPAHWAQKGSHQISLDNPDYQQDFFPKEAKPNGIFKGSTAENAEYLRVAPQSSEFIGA

Consider `CN1CCN(c2ccc(Nc3ncc(/C=C/C#N)c(NC4CCCC4)n3)cc2)CC1` [Compound 8h, 3-{4-Cyclopentylamino-2-[4-(4-methylpiperazin-1-yl)phenylamino]pyrimidin-5-yl}acrylonitrile], for which the IC50 on AKT1 was > 1000 nM; at ALK, < 100 nM; against ARK5/NUAK1, < 100 nM; against Aurora B, < 100 nM; against Aurora C it was > 1000 nM; on CDK2/cyclin A, > 1000 nM. Also, the concentration for half-maximal inhibition (IC50) against CDK4/cyclin D1 was 100 to 1000 nM; on CDK5/p25, > 10000 nM; at CHK2 it was 100 to 1000 nM; on EGFR, 100 to 1000 nM; at JAK1, 100 to 1000 nM; against JAK2, 100 to 1000 nM. The IC50 is > 1000 nM against MEK1; > 1000 nM on MEK2; < 100 nM at PDGFRb; > 1000 nM against PIM3; 100 to 1000 nM on PLK1; < 100 nM against RET. On c-Kit, this compound had an IC50 of 100 to 1000 nM.

For the origin of these results see patent US9815847B2 (Icahn School of Medicine at Mount Sinai, priority 2013, dated 2017).
